Laboratory results published in patent publication US20180021278A1, “TREATMENT OR PREVENTION OF INFLAMMATION USING SERINE” (NESTEC S.A., priority 2015, published 2018).

System: DSS-induced colitis
Test: DSS-induced colitis in rats, histological total colitis score of colon sections (HE staining)
Type: in vivo
Details: male Sprague-Dawley rats, 5% DSS D0-D8 then 2% DSS D9-D28, control diet supplemented with 10 g/kg dry matter serine (DSS-SER) vs alanine-supplemented DSS-ALA group
Description: The experimental procedures were carried out in accordance to European guidelines for the care and use of laboratory animals (Directive 2010/63/UE). 30 male Sprague-Dawley rats from Janvier (France), aged […] and weighting around 500/700g on the day of arrival, were used for this study. Animals were individually housed in cages. During the study, they had free access to food and drinking water or a dextran sulfate sodium (DSS, MW 36-44 kDa, ICN Biomedicals) solution ad libitum. Colitis was induced by treating rats with 5% DSS from D0 to D8 (acute colitis) and then 2% DSS from D9 to D28 (chronic colitis). DSS was dissolved in autoclaved water and provided ad libitum to the rats. Animals of the control group were given water not containing DSS from D0 to D28.
3 groups of rats received the following treatment and diets: […]
At the end of the experiment (D28), animals were anesthetized using a combination of ketamine and xylasine and then euthanized by cervical dislocation. […] A score (ranging from 0 to 3) was finally determined for each criterion on each colon section and a total score was calculated.

N[C@@H](CO)C(=O)O [Serine, serine]
Total colitis score (sum of 0-3 scores for mucosal degeneration, mucosal regeneration and hyperplasia, acute and sub-acute inflammation) (p<0.05): significantly lower | Total colitis score (sum of 0-3 scores for mucosal degeneration, mucosal regeneration and hyperplasia, acute and sub-acute inflammation) (p<0.05, listed as serine): reduced colitis
